{"source": "patent US20030092684A1", "about": "“Compositions and methods for treating hemorrhagic virus infections and other disorders” (priority 1999, published 2003)", "key": {"Dengue virus type 2": {"test_system": "Dengue virus type 2", "assay": "Dengue virus infection treated with tetracycline compounds (Example 4): mortality", "assay_type": "in vivo, BALB/c mice", "details": "for % (survival): 20 mice, 20 mg/kg"}, "TNF-α and IL-1β": {"test_system": "TNF-α and IL-1β", "assay": "Serum TNF and IL-1 in Dengue infected mice (Example 4)", "assay_type": "in vivo, BALB/c mice", "details": "for level of the cytokines in the serum versus control A2 group: 20 mg/kg twice per day from day -3 until day 8"}, "Mononuclear human cells": {"test_system": "Mononuclear human cells", "assay": "In vitro activation of mononuclear human cells by antibiotics: IL-1RA and sTNFrI production", "assay_type": "cell-based", "details": "0.06 mg/ml, activation for 2 hours"}, "IL-1RA and sTNFrl": {"test_system": "IL-1RA and sTNFrl", "assay": "IL-1RA and sTNFrl in human donor serum after oral antibiotic stimulation", "assay_type": "in vivo"}, "[1]": {"details": "20 mg/kg intramuscularly twice per day from day -3 until day 8"}, "[2]": {"details": "20 mg/kg intramuscularly twice per day from day -3 until day 8, listed as terramycine"}, "[3]": {"details": "day 0, 20 mg/kg intramuscularly twice per day from day -3 until day 8"}, "[4]": {"details": "day 1, 20 mg/kg intramuscularly twice per day from day -3 until day 8"}, "[5]": {"details": "day 3, 20 mg/kg intramuscularly twice per day from day -3 until day 8"}, "[6]": {"details": "day 5, 20 mg/kg intramuscularly twice per day from day -3 until day 8"}, "[7]": {"details": "day 6, 20 mg/kg intramuscularly twice per day from day -3 until day 8"}, "[8]": {"details": "day 7, 20 mg/kg intramuscularly twice per day from day -3 until day 8"}, "[9]": {"details": "day 8, 20 mg/kg intramuscularly twice per day from day -3 until day 8"}, "[10]": {"details": "day 12, 20 mg/kg intramuscularly twice per day from day -3 until day 8"}, "[11]": {"details": "day -1, 20 mg/kg intramuscularly twice per day from day -3 until day 8"}, "[12]": {"details": "150 mg orally twice a day, blood taken on the second and third day after beginning"}, "[13]": {"details": "after stimulation, 2 persons, on the 24th hour"}, "[14]": {"details": "20 mg/kg orally twice per day from day -3 until day 8"}, "[15]": {"details": "20 mg/kg orally twice per day from day -3 until day 8, listed as vibromycine"}, "[16]": {"details": "day 0, 20 mg/kg orally twice per day from day -3 until day 8"}, "[17]": {"details": "day 1, 20 mg/kg orally twice per day from day -3 until day 8"}, "[18]": {"details": "day 3, 20 mg/kg orally twice per day from day -3 until day 8"}, "[19]": {"details": "day 5, 20 mg/kg orally twice per day from day -3 until day 8"}, "[20]": {"details": "day 6, 20 mg/kg orally twice per day from day -3 until day 8"}, "[21]": {"details": "day 7, 20 mg/kg orally twice per day from day -3 until day 8"}, "[22]": {"details": "day 8, 20 mg/kg orally twice per day from day -3 until day 8"}, "[23]": {"details": "day 12, 20 mg/kg orally twice per day from day -3 until day 8"}, "[24]": {"details": "day -1, 20 mg/kg orally twice per day from day -3 until day 8"}}, "data": [{"smiles": "CN(C)[C@@H]1C(O)=C(C(N)=O)C(=O)[C@@]2(O)C(O)=C3C(=O)c4c(O)cccc4[C@@](C)(O)[C@H]3[C@H](O)[C@@H]12", "note": "[Terramycine]", "values": [{"measurement": "m.t.d.", "setting": "Dengue virus type 2; [1]", "result": "m.t.d. = 6.53 days"}, {"measurement": "m.t.d.", "setting": "Dengue virus type 2; [2]", "result": 6.53, "unit": "days"}, {"measurement": "% (survival)", "setting": "Dengue virus type 2; [1]", "result": "% (survival) 15"}, {"measurement": "% (survival)", "setting": "Dengue virus type 2; [2]", "result": 15, "unit": "%"}, {"measurement": "Survival/total amount", "setting": "Dengue virus type 2; [3]", "result": "20/20"}, {"measurement": "Survival/total amount", "setting": "Dengue virus type 2; [4]", "result": "20/20"}, {"measurement": "Survival/total amount", "setting": "Dengue virus type 2; [5]", "result": "20/20"}, {"measurement": "Survival/total amount", "setting": "Dengue virus type 2; [6]", "result": "19/20"}, {"measurement": "Survival/total amount", "setting": "Dengue virus type 2; [7]", "result": "11/20"}, {"measurement": "Survival/total amount", "setting": "Dengue virus type 2; [8]", "result": "6/20"}, {"measurement": "Survival/total amount", "setting": "Dengue virus type 2; [9]", "result": "3/20"}, {"measurement": "Survival/total amount", "setting": "Dengue virus type 2; [10]", "result": "3/20"}, {"measurement": "Survival/total amount", "setting": "Dengue virus type 2; [11]", "result": "20/20"}, {"measurement": "level of the cytokines in the serum versus control A2 group", "setting": "TNF-α and IL-1β", "result": "statistically lower"}, {"measurement": "increase of the concentration of IL-1", "setting": "TNF-α and IL-1β; by day 3 of the disease, stayed until day 7, 20 mg/kg intramuscularly twice per day", "result": 16, "unit": "fold"}, {"measurement": "increase of the concentration of TNF", "setting": "TNF-α and IL-1β; by day 6 of the disease, 20 mg/kg intramuscularly twice per day", "result": 2, "unit": "fold"}, {"measurement": "IL-1", "setting": "TNF-α and IL-1β; [3]", "result": 7.0, "unit": "pg/mL"}, {"measurement": "TNF", "setting": "TNF-α and IL-1β; [3]", "result": 17.0, "unit": "pg/mL"}, {"measurement": "IL-1", "setting": "TNF-α and IL-1β; [4]", "result": 21.8, "unit": "pg/mL"}, {"measurement": "TNF", "setting": "TNF-α and IL-1β; [4]", "result": 15.2, "unit": "pg/mL"}, {"measurement": "IL-1", "setting": "TNF-α and IL-1β; [5]", "result": 112.0, "unit": "pg/mL"}, {"measurement": "TNF", "setting": "TNF-α and IL-1β; [5]", "result": 25.6, "unit": "pg/mL"}, {"measurement": "IL-1", "setting": "TNF-α and IL-1β; [6]", "result": 84.0, "unit": "pg/mL"}, {"measurement": "TNF", "setting": "TNF-α and IL-1β; [6]", "result": 26.0, "unit": "pg/mL"}, {"measurement": "IL-1", "setting": "TNF-α and IL-1β; [7]", "result": 80.0, "unit": "pg/mL"}, {"measurement": "TNF", "setting": "TNF-α and IL-1β; [7]", "result": 36.2, "unit": "pg/mL"}, {"measurement": "IL-1", "setting": "TNF-α and IL-1β; [8]", "result": 76.0, "unit": "pg/mL"}, {"measurement": "TNF", "setting": "TNF-α and IL-1β; [8]", "result": 28.0, "unit": "pg/mL"}, {"measurement": "IL-1", "setting": "TNF-α and IL-1β; [9]", "result": 42.0, "unit": "pg/mL"}, {"measurement": "TNF", "setting": "TNF-α and IL-1β; [9]", "result": 20.0, "unit": "pg/mL"}, {"measurement": "IL-1", "setting": "TNF-α and IL-1β; [10]", "result": 16.0, "unit": "pg/mL"}, {"measurement": "TNF", "setting": "TNF-α and IL-1β; [10]", "result": 18.0, "unit": "pg/mL"}, {"measurement": "IL-1", "setting": "TNF-α and IL-1β; [11]", "result": 7.2, "unit": "pg/mL"}, {"measurement": "TNF", "setting": "TNF-α and IL-1β; [11]", "result": 18.8, "unit": "pg/mL"}, {"measurement": "IL-1RA", "setting": "Mononuclear human cells; 0 hours", "result": "28 + 1.6 pg/ml"}, {"measurement": "sTNFrI", "setting": "Mononuclear human cells; 0 hours", "result": "18 + 1.4 pg/ml"}, {"measurement": "IL-1RA", "setting": "Mononuclear human cells; 3 hours", "result": "93 + 6.2 pg/ml"}, {"measurement": "sTNFrI", "setting": "Mononuclear human cells; 3 hours", "result": "313 + 10.4 pg/ml"}, {"measurement": "IL-1RA", "setting": "Mononuclear human cells; 6 hours", "result": "220 + 9.4 pg/ml"}, {"measurement": "sTNFrI", "setting": "Mononuclear human cells; 6 hours", "result": "224 + 9.2 pg/ml"}, {"measurement": "IL-1RA", "setting": "Mononuclear human cells; 24 hours", "result": "185 + 8.6 pg/ml"}, {"measurement": "sTNFrI", "setting": "Mononuclear human cells; 24 hours", "result": "264 + 9.6 pg/ml"}]}, {"smiles": "CC1c2cccc(O)c2C(=O)C2=C(O)C3(O)C(=O)C(C(N)=O)=C(O)C(N(C)C)C3C(O)C21", "note": "(stereo not shown) [Vybromycine]", "values": [{"measurement": "concentration in the human serum of IL-1RA", "setting": "IL-1RA and sTNFrl; [12]", "result": 184, "unit": "pg/mL"}, {"measurement": "concentration in the human serum of sTNFrl", "setting": "IL-1RA and sTNFrl; [12]", "result": 950, "unit": "pg/mL"}, {"measurement": "IL-1RA in the donor serum", "setting": "IL-1RA and sTNFrl; [13]", "result": "126.8 ± 6.8", "unit": "pg/mL"}, {"measurement": "sTNFrl in the donor serum", "setting": "IL-1RA and sTNFrl; [13]", "result": "970 ± 28.6", "unit": "pg/mL"}, {"measurement": "IL-1RA in the donor serum", "setting": "IL-1RA and sTNFrl; before the stimulation", "result": "20 ± 2.2", "unit": "pg/mL"}, {"measurement": "sTNFrl in the donor serum", "setting": "IL-1RA and sTNFrl; before the stimulation", "result": "22 ± 3.4", "unit": "pg/mL"}, {"measurement": "m.t.d.", "setting": "Dengue virus type 2; [14]", "result": "m.t.d. = 6.7 days"}, {"measurement": "m.t.d.", "setting": "Dengue virus type 2; [15]", "result": 6.7, "unit": "days"}, {"measurement": "% (survival)", "setting": "Dengue virus type 2; [14]", "result": "% (survival) 20"}, {"measurement": "% (survival)", "setting": "Dengue virus type 2; [15]", "result": 20, "unit": "%"}, {"measurement": "Survival/total amount", "setting": "Dengue virus type 2; [16]", "result": "20/20"}, {"measurement": "Survival/total amount", "setting": "Dengue virus type 2; [17]", "result": "20/20"}, {"measurement": "Survival/total amount", "setting": "Dengue virus type 2; [18]", "result": "20/20"}, {"measurement": "Survival/total amount", "setting": "Dengue virus type 2; [19]", "result": "19/20"}, {"measurement": "Survival/total amount", "setting": "Dengue virus type 2; [20]", "result": "15/20"}, {"measurement": "Survival/total amount", "setting": "Dengue virus type 2; [21]", "result": "5/20"}, {"measurement": "Survival/total amount", "setting": "Dengue virus type 2; [22]", "result": "4/20"}, {"measurement": "Survival/total amount", "setting": "Dengue virus type 2; [23]", "result": "4/20"}, {"measurement": "Survival/total amount", "setting": "Dengue virus type 2; [24]", "result": "20/20"}, {"measurement": "increase of the concentration of TNF", "setting": "TNF-α and IL-1β; 20 mg/kg orally twice per day", "result": 3, "unit": "fold"}, {"measurement": "level of the cytokines in the serum versus control A2 group", "setting": "TNF-α and IL-1β", "result": "statistically lower"}, {"measurement": "increase of the concentration of IL-1", "setting": "TNF-α and IL-1β; by day 6 of the infection, 20 mg/kg orally twice per day", "result": 12, "unit": "fold"}, {"measurement": "IL-1", "setting": "TNF-α and IL-1β; [16]", "result": 7.0, "unit": "pg/mL"}, {"measurement": "TNF", "setting": "TNF-α and IL-1β; [16]", "result": 18.8, "unit": "pg/mL"}, {"measurement": "IL-1", "setting": "TNF-α and IL-1β; [17]", "result": 11.6, "unit": "pg/mL"}, {"measurement": "TNF", "setting": "TNF-α and IL-1β; [17]", "result": 12.6, "unit": "pg/mL"}, {"measurement": "IL-1", "setting": "TNF-α and IL-1β; [18]", "result": 60.0, "unit": "pg/mL"}, {"measurement": "TNF", "setting": "TNF-α and IL-1β; [18]", "result": 10.8, "unit": "pg/mL"}, {"measurement": "IL-1", "setting": "TNF-α and IL-1β; [19]", "result": 62.0, "unit": "pg/mL"}, {"measurement": "TNF", "setting": "TNF-α and IL-1β; [19]", "result": 16.0, "unit": "pg/mL"}, {"measurement": "IL-1", "setting": "TNF-α and IL-1β; [20]", "result": 84.4, "unit": "pg/mL"}, {"measurement": "TNF", "setting": "TNF-α and IL-1β; [20]", "result": 34.0, "unit": "pg/mL"}, {"measurement": "IL-1", "setting": "TNF-α and IL-1β; [21]", "result": 64.0, "unit": "pg/mL"}, {"measurement": "TNF", "setting": "TNF-α and IL-1β; [21]", "result": 30.6, "unit": "pg/mL"}, {"measurement": "IL-1", "setting": "TNF-α and IL-1β; [22]", "result": 30.0, "unit": "pg/mL"}, {"measurement": "TNF", "setting": "TNF-α and IL-1β; [22]", "result": 26.0, "unit": "pg/mL"}, {"measurement": "IL-1", "setting": "TNF-α and IL-1β; [23]", "result": 17.8, "unit": "pg/mL"}, {"measurement": "TNF", "setting": "TNF-α and IL-1β; [23]", "result": 22.2, "unit": "pg/mL"}, {"measurement": "IL-1", "setting": "TNF-α and IL-1β; [24]", "result": 7.0, "unit": "pg/mL"}, {"measurement": "TNF", "setting": "TNF-α and IL-1β; [24]", "result": 20.4, "unit": "pg/mL"}]}]}
